The subject of one data set is SREBP. Briefly: SREBP induction in human liver (HepG2) cells, RT-PCR. The class given is cell-based. Conditions: for fold induction at 0.3 µM: human, HepG2 cells (human liver carcinoma), read-out: Safety SREBP mRNA fold induction at 300 nM; for SREBP activation: fold induction compared to DMSO, several values per cell, Table 6. How it is done: The SREBP transcription factor is involved in triglyceride synthesis, and its activation correlates with increased triglycerides in vivo. […] Lower numbers indicate better safety. […] Lower numbers indicate better safety. Also, for Table 6, SREBP activation was measured as fold induction compared to DMSO, where a lower value indicates the compound is an improvement over a control.

Data set [1] relates to inducible nitric oxide synthase (iNOS). The data set is described as follows: iNOS suppression / NO assay in LPS-stimulated macrophages or RAW264.7 cells (Griess reaction). The class given is cell-based, mouse. Conditions: Mus musculus; for IC50: RAW264.7, Table 7. How it is done: Macrophages or RAW264.7 like-cells were treated with various concentrations of rexinoids and stimulated with lipopolysaccaride (LPS) to activate inducible nitric oxide synthase (iNOS) to produce nitric oxide. This in vitro iNOS assay was rapid, reproducible, quantitative and predictive. Nitric oxide is implicated in the apoptosis of cancer cells via regulation of RXRs. There is a tight correlation between the % reduction of iNOS and efficacy in preclinical lung cancer models. Lower numbers indicate higher efficacy.
RAW264.7 cells were incubated with 300 nM rexinoids and stimulated with 1-2 ng/ml lipopolysaccaride (LPS) for 24 hours to activate inducible nitric oxide synthase (iNOS) to produce nitric oxide. Nitric oxide released into the media was measured by the Griess reaction.
Also, for Table 6, the iNOS suppression is the percent of the LPS-stimulated control where the compounds were measured at 100 nM or 300 nM.
Macrophages or RAW264.7 cells were treated with various concentrations of rexinoids listed in Table 7 and stimulated with lipopolysaccaride (LPS) to activate inducible nitric oxide synthase (iNOS) to produce nitric oxide. Nitric oxide (NO) is implicated in the apoptosis of cancer cells via regulation of RXRs. There is a tight correlation between the % reduction of iNOS and efficacy in preclinical lung cancer models. The in vitro iNOS assay is rapid, reproducible, quantitative and predictive, as NO production is measured in culture medium using the Griess reaction. Values are either presented as % inhibition or IC50 values.

Setting [2] is: RAW264.7, 24 h, at 300 nM, percent of the LPS-stimulated control, lower is better, Table 6, read-out: iNOS suppression.
Where [3] appears, read: RAW264.7, 24 h, read-out: iNOS (300 nM).

Values joined by “and” are separate entries in the source; they are usually repeats but may differ in a detail not shown here. Equal values may be shown once. Read-outs that look alike come from different tables or passages of the source.

On to `CC(C)CN(c1cc(C(C)(C)C)cc(C(C)(C)C)c1)c1ncc(C(=O)O)cn1`, for which the fold induction at 0.3 µM in the data set with SREBP (300 nM, HepG2, Table 5) was 2.46 ± 0.5.
Take `CC(C)(C)c1cc(N(CC2CC2)c2ncc(C(=O)O)cn2)cc(C(C)(C)C)c1`: the fold induction at 0.3 µM in the data set on SREBP (300 nM, HepG2, Table 5) turned out to be 1.46 ± 0.2.
The same measure, in the same setting: under `CC(C)N(c1cc(C(C)(C)C)cc(C(C)(C)C)c1)c1ccc(C(=O)O)cn1` stands 1.65 ± 0.1; under `Cc1ccc(C(C)(C)C)cc1N(CC(C)C)c1ccc(C(=O)O)cn1`, 4.93 ± 2.7.
Take `CC(C)N(c1cc(C(C)(C)C)cc(C(C)(C)C)c1)c1ncc(C(=O)O)cn1`: in the data set with SREBP (300 nM, HepG2, Table 5), the fold induction at 0.3 µM was determined as 2.46 ± 0.8.
Still for that read-out and setting: under `CC(C)CN(c1cc(C(F)(F)F)cc(C(F)(F)F)c1)c1ccc(C(=O)O)cn1` stands 1 ± 0.03; under `Cc1ccc(C(C)(C)C)cc1N(c1ccc(C(=O)O)cn1)C(C)C`, 0.98 ± 0.06; under `CCCN(c1cc(C(C)(C)C)cc(C(C)(C)C)c1)c1ncc(C(=O)O)cn1`, 1.25 ± 0.1.
The same measure, in the same setting: under `CCCN(c1ccc(C(=O)O)cn1)c1cc(C(C)(C)C)ccc1C` stands 1.8 ± 0.2.
With `C=C(c1ccc(C(=O)O)cc1)c1cc2c(cc1C)CCCC2(C)C`, in the data set on SREBP, the SREBP activation is 2.0 fold induction. Further, in data set [1] (setting [2]), the activity at 0.3 µM was 55%.
As for `CCCCN(c1ccc(C(=O)O)cn1)c1cc(C(C)(C)C)cc2c1CCC2(C)C`, the IC50 in data set [1] fell in the range of 100 to 200 nM.
Same read-out and setting: under `CCCN(c1ccc(C(=O)O)cn1)c1cc(C(C)(C)C)cc2c1CCC2(C)C` stands 100 to 200 nM; under `CC(C)CN(c1ccc(C(=O)O)cn1)c1cc(C(C)(C)C)cc2c1CCC2(C)C`, 100 to 200 nM.
In data set [1], `CC(C)(C)c1cc(N(CC2CC2)c2ccc(C(=O)O)cn2)c2c(c1)C(C)(C)CC2` returned an IC50 of 100 to 200 nM.
Turning to `CC(C)CN(c1ncc(C(=O)O)cn1)c1cc(C(C)(C)C)cc2c1CCC2(C)C`, the IC50 in data set [1] lay within 300 to 600 nM.
`CC(C)(C)c1cc(N(CC2CC2)c2ncc(C(=O)O)cn2)c2c(c1)C(C)(C)CC2` showed an IC50 in data set [1] of 200 to 300 nM.
Regarding `CCCCN(c1ncc(C(=O)O)cn1)c1cc(C(C)(C)C)cc2c1CCC2(C)C`, in data set [1], the IC50 fell in the range of 300 to 600 nM.
Still for that read-out and setting: the figure for `CCCN(c1ncc(C(=O)O)cn1)c1cc(C(C)(C)C)cc2c1CCC2(C)C` is 300 to 600 nM; for `CC(C)N(c1ncc(C(=O)O)cn1)c1cc(C(C)(C)C)cc2c1CCC2(C)C` it is 300 to 600 nM.
Same read-out and setting: the figure for `Cc1cc(N(CC(C)C)c2ccc(C(=O)O)cn2)cc(C(F)(F)F)c1` is 300 to 600 nM; for `Cc1ccc(N(CC2CC2)c2ccc(C(=O)O)cn2)cc1C(F)(F)F` it is 300 to 600 nM.
On the same count and under the same terms, under `Cc1ccc(N(c2ccc(C(=O)O)cn2)C(C)C)cc1C(F)(F)F` stands 300 to 600 nM.
Take `CC(C)N(c1cc(C(F)(F)F)cc(C(F)(F)F)c1)c1ncc(C(=O)O)cn1`: in data set [1], the IC50 was in the range of 100 to 200 nM.
For the compound `CC(C)N(c1ccc(C(=O)O)cn1)c1cc(C(C)(C)C)cc2c1CCC2(C)C` [6-[(6-tert-butyl-1,1-dimethyl-2,3-dihydro-1H-inden-4-yl)(propan-2-yl)amino]pyridine-3-carboxylic Acid], the IC50 in data set [1] is 100 to 200 nM.
Still for that read-out and setting: the figure for `Cc1ccc(N(CC(C)C)c2ccc(C(=O)O)cn2)cc1C(F)(F)F` [6-{[4-methyl-3-(trifluoromethyl)phenyl](2-methylpropyl)amino}pyridine-3-carboxylic Acid] is 300 to 600 nM.
For the compound `CCCN(c1ccc(C)c(C(F)(F)F)c1)c1ccc(C(=O)O)cn1` [6-{[4-methyl-3-(trifluoromethyl)phenyl](propyl)amino}pyridine-3-carboxylic Acid], in data set [1], the IC50 lay in the range of 300 to 600 nM.
As to `C=C(c1ccc(C(=O)O)cc1)c1cc(C(C)C)c(OC(C)C)cc1C` [Compound 1, 4-{1-[2-methyl-5-(propan-2-yl)-4-(propan-2-yloxy)phenyl]ethenyl}benzoic Acid], in data set [1] (setting [3]), the activity at 0.3 µM is 41%.
For the compound `C=C(c1ccc(C(=O)O)cc1)c1cc(C(C)C)c(OCC)cc1C` [Compound 2, 4-{1-[4-ethoxy-2-methyl-5-(propan-2-yl)phenyl]ethenyl}benzoic Acid], the activity at 0.3 µM in data set [1] (300 nM, RAW264.7, 1-2 ng/ml LPS, 24 hours, Table 3, read-out: iNOS (300 nM)) came out at 45%.
Take `C=C(c1ccc(C(=O)O)cc1)c1cc(C(C)(C)C)ccc1OCC` [Compound 4, 4-[1-(5-tert-butyl-2-ethoxyphenyl)ethenyl]benzoic Acid]: the activity at 0.3 µM in data set [1] (setting [3]) was found to be 65%.
Same read-out and setting: the figure for `C=C(c1ccc(C(=O)O)cc1)c1ccc(OCC(C)C)c(C(C)C)c1` [Compound 5, 4-{1-[3-iso-propyl-4-(2-methylpropoxy)phenyl]ethenyl}benzoic Acid] is 65%.
Consider `C=C(c1ncc(C(=O)O)cn1)c1cc2c(cc1C)C(C)(C)CCC2(C)C` [Pyrimidine Bexarotene, reference compound], for which the “Safety SREBP mRNA fold induction at 300 nM” value in the data set on SREBP (300 nM, HepG2, Table 5) is listed as 1.19 ± .1 fold.
Regarding `C=C(c1ccc(C(=O)O)cc1)c1cc2c(cc1C)C(C)(C)CCC2(C)C` [drawing 61], the fold induction at 0.3 µM in the data set on SREBP (300 nM, HepG2, Table 5) stood at 2.23 ± 0.5.
Take `Cc1cc2c(cc1C1(c3ncc(C(=O)O)cn3)CC1)C(C)(C)CCC2(C)C` [drawing 63]: the fold induction at 0.3 µM in the data set with SREBP (300 nM, HepG2, Table 5) came out at 1.17 ± 0.1.
On the same count and under the same terms, under `CCN(c1ccc(C(=O)O)cc1)c1cc(C(C)(C)C)cc(C(C)(C)C)c1` [drawing 64] stands 1.37 ± 0.3; under `CCN(c1cc(C(C)(C)C)cc(C(C)(C)C)c1)c1ccc(C(=O)O)cn1` [drawing 65], 2.62 ± 0.7; under `CCN(c1cc(C(C)(C)C)cc(C(C)(C)C)c1)c1ncc(C(=O)O)cn1` [drawing 66], 1.38 ± 0.4.
Same read-out and setting: under `CCOc1c(N(CC)c2ccc(C(=O)O)cc2)cc(C(C)(C)C)cc1C(C)(C)C` [drawing 67] stands 1.59 ± 0.2; under `CC(C)(C)c1cc(-n2c(C(F)(F)F)nc3cc(C(=O)O)ccc32)cc(C(C)(C)C)c1` [drawing 69], 1.58 ± 0.2; under `C=C(c1ccc(C(=O)O)cc1)c1cc(C(C)C)c(OCC(C)C)cc1C` [drawing 71], 1.67 ± 0.2.
The same measure, in the same setting: under `CCN(c1ccc(C(=O)O)cn1)c1cc(C(C)(C)C)ccc1C` [drawing 72] stands 1.59 ± 0.5; under `C=C(c1ccc(C(=O)O)cc1)c1cc(C(C)C)c(OC(C)C)cc1C` [drawing 74], 1.08 ± 0.1; under `C=C(c1ccc(C(=O)O)cc1)c1cc(C(C)(C)C)cc(C(C)(C)C)c1` [drawing 76], 1.12 ± 0.5.
Take `CCCN(c1cc(C(C)(C)C)cc(C(C)(C)C)c1)c1ccc(C(=O)O)cn1` [drawing 77]: the fold induction at 0.3 µM in the data set on SREBP (300 nM, HepG2, Table 5) was found to be 2.15 ± 0.7.
The same measure, in the same setting: the figure for `CC(C)(C)c1cc(N(CC2CC2)c2ccc(C(=O)O)cn2)cc(C(C)(C)C)c1` [drawing 78] is 2.48 ± 1.8; for `CCN(c1cc(C(F)(F)F)cc(C(F)(F)F)c1)c1ccc(C(=O)O)cn1` [drawing 79] it is 0.96 ± 0.5; for `CCN(c1ccc(C(=O)O)cc1)c1cc(C(C)C)c(OCC(C)C)cc1C` [drawing 80] it is 1.45 ± 0.2.
Regarding `CCN(c1ccc(C(=O)O)cc1)c1cc(C(C)(C)C)c(OC)c(C(C)(C)C)c1` [drawing 81], in the data set on SREBP (300 nM, HepG2, Table 5), the fold induction at 0.3 µM came out at 1.63 ± 0.3.
On to `CC(C)CN(c1cc(C(C)(C)C)cc(C(C)(C)C)c1)c1ccc(C(=O)O)cn1` [drawing 82], for which the fold induction at 0.3 µM in the data set with SREBP (300 nM, HepG2, Table 5) turned out to be 1.49 ± 0.6.
Regarding `CCCCN(c1cc(C(C)(C)C)cc(C(C)(C)C)c1)c1ccc(C(=O)O)cn1` [drawing 83], the fold induction at 0.3 µM in the data set on SREBP (300 nM, HepG2, Table 5) came out at 5.6 ± 3.6.
In the case of `CC(C)(C)c1cc(N(Cc2ccccc2)c2ccc(C(=O)O)cn2)cc(C(C)(C)C)c1` [drawing 93], the fold induction at 0.3 µM in the data set with SREBP (300 nM, HepG2, Table 5) came to 1.94 ± 0.04.
Compound `CCOc1c(N(CC)c2ccc(C(=O)O)cc2)cc(C(C)(C)C)cc1C(C)(C)C` [drawing 107] registered an SREBP activation in the data set on SREBP of 2.4 fold induction. Further, in data set [1] (setting [2]), the activity at 0.3 µM was determined as 60%.
In the data set with SREBP, `C=C(c1ccc(C(=O)O)cc1)c1cc(C(C)(C)C)ccc1OCC` [drawing 108] returned an SREBP activation of 2.1 fold induction. In addition, the activity at 0.3 µM in data set [1] (setting [2]) is 67%.
`CC(C)(C)c1cc(-n2c(C(F)(F)F)nc3cc(C(=O)O)ccc32)cc(C(C)(C)C)c1` [drawing 109]: in the data set with SREBP, the SREBP activation is 3.4 fold induction and 2.1 fold induction. For the same compound, the activity at 0.3 µM in data set [1] (setting [2]) was determined as 45%.
As to `CC(C)CN(c1cc(C(C)(C)C)cc(C(C)(C)C)c1)c1ccc(C(=O)O)cn1` [drawing 122], the SREBP activation with SREBP is 1.7 fold induction and 2.0 fold induction.
In the case of `CCCCN(c1cc(C(C)(C)C)cc(C(C)(C)C)c1)c1ccc(C(=O)O)cn1` [drawing 123], the SREBP activation in the data set with SREBP worked out at 5.3 fold induction.
For `CC(C)(C)c1cc(N(Cc2ccccc2)c2ccc(C(=O)O)cn2)cc(C(C)(C)C)c1` [drawing 195, 6-[benzyl(3,5-di-tert-butylphenyl)amino]pyridine-3-carboxylic Acid], in data set [1], the IC50 was in the range of 300 to 600 nM.

The term IC50 denotes the concentration at which inhibition is half-maximal.

Source of the values: patent US20220089540A1 (Board of Trustees of Michigan State University, priority 2019, published 2022).
